According to patent US20160368898A1, “2-PYRIDYLOXY-4-METHYL OREXIN RECEPTOR ANTAGONISTS” (MERCK SHARP & DOHME CORP., priority 2013, published 2016):

Assays:
hOX1R = target: T1, hOX1R (Homo sapiens, UniProt O43613); experiment: FLIPR Ca2+ Flux Assay, CHO cells expressing the orexin-1 receptor; type: cell-based; conditions: agonist 70 pM Ala-6,12 human orexin-A
T1 construct: expressed in transfected cells; host or cells: CHO cells (grown under G418)
T1 sequence (O43613 1-425): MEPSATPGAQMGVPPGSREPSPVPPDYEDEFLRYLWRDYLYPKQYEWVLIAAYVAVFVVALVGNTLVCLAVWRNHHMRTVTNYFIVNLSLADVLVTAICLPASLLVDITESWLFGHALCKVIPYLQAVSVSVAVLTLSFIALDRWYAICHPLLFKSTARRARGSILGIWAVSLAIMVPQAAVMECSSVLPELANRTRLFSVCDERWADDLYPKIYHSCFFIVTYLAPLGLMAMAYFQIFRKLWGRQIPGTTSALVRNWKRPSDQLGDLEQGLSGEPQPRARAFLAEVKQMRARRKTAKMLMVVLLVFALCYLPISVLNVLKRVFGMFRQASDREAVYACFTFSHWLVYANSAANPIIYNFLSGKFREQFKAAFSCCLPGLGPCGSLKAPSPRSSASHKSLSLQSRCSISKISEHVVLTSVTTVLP

[1] = target: T2, human orexin-2 receptor (hOX2R) (Homo sapiens, UniProt O43614); experiment: FLIPR Ca2+ Flux Assay, CHO cells expressing the human orexin-2 receptor; type: cell-based; conditions: agonist 70 pM Ala-6,12 human orexin-A
T2 construct: expressed in transfected cells; host or cells: CHO cells (grown under G418)
T2 sequence (O43614 1-444): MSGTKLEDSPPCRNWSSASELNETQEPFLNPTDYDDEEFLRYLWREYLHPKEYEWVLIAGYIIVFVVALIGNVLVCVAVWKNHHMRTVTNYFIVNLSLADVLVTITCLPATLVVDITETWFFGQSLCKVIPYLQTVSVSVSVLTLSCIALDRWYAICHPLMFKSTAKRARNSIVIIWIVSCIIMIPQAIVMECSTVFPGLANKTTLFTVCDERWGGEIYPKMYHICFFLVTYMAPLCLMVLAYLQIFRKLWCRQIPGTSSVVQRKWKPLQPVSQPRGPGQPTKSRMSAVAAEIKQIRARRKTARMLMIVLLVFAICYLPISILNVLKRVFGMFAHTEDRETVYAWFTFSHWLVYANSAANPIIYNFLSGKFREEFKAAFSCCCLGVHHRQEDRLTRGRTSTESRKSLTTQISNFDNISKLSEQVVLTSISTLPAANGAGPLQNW
Protocol: The utility of the compounds in accordance with the present invention as orexin receptor OX1R and/or OX2R antagonists may be readily determined without undue experimentation by methodology well known in the art, including the “FLIPR Ca^2+ Flux Assay” (Okumura et al., Biochem. Biophys. Res. Comm. 280:976-981, 2001). In a typical experiment the OX1 and OX2 receptor antagonistic activity of the compounds of the present invention was determined in accordance with the following experimental method. For intracellular calcium measurements, Chinese hamster ovary (CHO) cells expressing the rat orexin-1 receptor or the human orexin-2 receptor, are grown in Iscove's modified DMEM containing 2 mM L-glutamine, […], 1% hypoxanthine-thymidine supplement, 100 U/ml penicillin, 100 μg/ml streptomycin and 10% heat-inactivated fetal calf serum (FCS). The cells are seeded at 20,000 cells/well into Becton-Dickinson black 384-well clear bottom sterile plates coated with poly-D-lysine. All reagents were from GIBCO-Invitrogen Corp. The seeded plates are incubated overnight at 37° C. and 5% CO2. Ala-6,12 human orexin-A as the agonist is prepared as a 1 mM stock solution in 1% bovine serum albumin (BSA) and diluted in assay buffer (HBSS containing 20 mM HEPES, 0.1% BSA and 2.5 mM probenecid, pH7.4) for use in the assay at a final concentration of 70 pM. Test compounds are prepared as 10 mM stock solution in DMSO, then diluted in 384-well plates, first in DMSO, then assay buffer. On the day of the assay, cells are washed 3 times with 100 μl assay buffer and then incubated for 60 min (37° C., 5% CO2) in 60 μl assay buffer containing 1 μM Fluo-4AM ester, 0.02% pluronic acid, and 1% BSA. The dye loading solution is then aspirated and cells are washed 3 times with 100 μl assay buffer. 30 μl of that same buffer is left in each well. Within the Fluorescent Imaging Plate Reader (FLIPR, Molecular Devices), test compounds are added to the plate in a volume of 25 μl, incubated for 5 min and finally 25 μl of agonist is added. Fluorescence is measured for each well at 1 second intervals for 5 minutes and the height of each fluorescence peak is compared to the height of the fluorescence peak induced by 70 pM Ala-6,12 orexin-A with buffer in place of antagonist. For each antagonist, IC50 value (the concentration of compound needed to inhibit 50% of the agonist response) is determined. Alternatively, compound potency can be assessed by a radioligand binding assay (described in Bergman et. al. Bioorg. Med. Chem. Lett. 2008, 18, 1425-1430) in which the inhibition constant (Ki) is determined in membranes prepared from CHO cells expressing either the OX1 or OX2 receptor. The intrinsic orexin receptor antagonist activity of a compound which may be used in the present invention may be determined by these assays.

- IC50 (hOX1R): 791 nM
- IC50 [1]: 17 nM
SMILES: Cc1ccnc(O[C@@H]2CC[C@@H](C)N(C(=O)c3sccc3-c3ncccn3)C2)c1 [Example 22, 2-[2-({(2R,5R)-2-methyl-5-[(4-methylpyridin-2-yl)oxy]piperidin-1-yl}carbonyl)thiophen-3-yl]pyrimidine]
